Measured values from US4252947A, “Novel quinazolinone” (Roussel Uclaf, priority 1976, dated 1981).
Counter-ions that a name gives are not always drawn.

Key:
[1] = system: Eimeria tenella; assay: Coccidiostatic activity in chicks infested with Eimeria tenella; type: in vivo; details: for weight gain / weight gain (or less) as compared to the animals which received product A-B: chicks infested with Eimeria tenella; for weight gain: 14 to 22 days old; for weight gain / weight gain (or less) as compared to the animals which received product A-B / consumption index: feed with 1 ppm of Product A or 3 ppm of Product A-B; for weight gain (or less) as compared to the animals which received product A-B: relative to product A-B; for consumption index: feed consumed compared to weight gain, higher = more sick
Description: The coccidiostatic activity of the product of Step E of Example 1 (product A) was studied in comparison with that of a racemic mixture of 7-bromo-6-chloro-3-[3-(3-hydroxy-2-piperidyl)-acetonyl]-4(3H)-quinazolinone (product A-B), 14 day old chicks were weighed and were divided into 3 groups of 13 animals. One group received a feed containing 1 ppm of product A, a second group received a feed containing 3 ppm of product A-B and the 3rd group received just the feed without any additive. The next day, the chicks were infested with Eimeria tenella coccidies and when the chicks were 22 days old, they were weighed as well as the remaining feed. The caecums were removed and the number of caecal lesions were noted. Also noted was (1) the weight of gain (or less) of the chicks as compared to the animals which received product A-B, (2) consumption index which is the amount of feed consumed compared to the weight gain which indice was all the more elevated than the animals which were more sick and (3) the intensity of the lesions on a seal of 1 to 6 were noted.

[2] = Oral acute toxicity (LD50, method of Finney); type: in vivo; details: Swiss female mice; for LD50: mouse, in vivo, dose which caused death in 50% of the animals
Procedure: The oral acute toxicity was determined for products A and A-B on groups of Swiss female mice by the method of Finney and the results were expressed as LD50 (the dose which caused death in 50% of the animals). The DL50 for product A was 3.7 mg/kg and for product A-B was 6.8 mg/kg. The acute toxicity of product A is only about 1.8 times greater than product A-B.

SMILES | weight gain [1] | weight gain (or less) as compared to the animals which received product A-B [1] | consumption index [1] | LD50 [2] | coccidiostatic activity greater than the racemic product A-B ([1]; ratio to racemic mixture) | acute toxicity greater than product A-B ([2]; ratio to racemic mixture)
O=C(CC1NCCCC1O)Cn1cnc2cc(Br)c(Cl)cc2c1=O (racemic) [Product A-B, 7-bromo-6-chloro-3-[3-(3-hydroxy-2-piperidyl)-acetonyl]-4(3H)-quinazolinone, reference compound] | 90.30 g | 0% | 2.018 | 6.8 mg/kg |  | 
O=C(C[C@H]1NCCC[C@@H]1O)Cn1cnc2cc(Br)c(Cl)cc2c1=O (single isomer, unassigned) [Product A, dextrorotary 7-bromo-6-chloro-3-[3-(3-hydroxy-2-piperidyl)-acetonyl]-4(3H)-quinazolinone hydrobromide] | 103.07 g | +14.14% | 1.807 | 3.7 mg/kg | 3 times | about 1.8 times
